Test results as given in the kinase profiling compilation of Christmann-Franck et al. (2016).
“And” between values parts separate entries of the source, which are not always exact repeats. Identical values can stand only once.

Key:
Test in all cases: radiometric filter-binding kinase assay, Kinase HotSpot
Settings in all cases: compound 0.5 µM; ATP 10 µM
[1] = biological target: KIT (human) (UniProt P10721)
[2] = biological target: MELK (human) (UniProt Q14680)
[3] = biological target: CDK5 CDK5R1 p35 (human) (UniProt Q00535+Q15078)
[4] = biological target: PAK4 (human) (UniProt O96013)
[5] = biological target: CDK9 CCNT1 (human) (UniProt P50750+O60563)
[6] = biological target: PKN2 (human) (UniProt Q16513)
Sequence of PKN2 (human) (Q16513 whole entry, looked up): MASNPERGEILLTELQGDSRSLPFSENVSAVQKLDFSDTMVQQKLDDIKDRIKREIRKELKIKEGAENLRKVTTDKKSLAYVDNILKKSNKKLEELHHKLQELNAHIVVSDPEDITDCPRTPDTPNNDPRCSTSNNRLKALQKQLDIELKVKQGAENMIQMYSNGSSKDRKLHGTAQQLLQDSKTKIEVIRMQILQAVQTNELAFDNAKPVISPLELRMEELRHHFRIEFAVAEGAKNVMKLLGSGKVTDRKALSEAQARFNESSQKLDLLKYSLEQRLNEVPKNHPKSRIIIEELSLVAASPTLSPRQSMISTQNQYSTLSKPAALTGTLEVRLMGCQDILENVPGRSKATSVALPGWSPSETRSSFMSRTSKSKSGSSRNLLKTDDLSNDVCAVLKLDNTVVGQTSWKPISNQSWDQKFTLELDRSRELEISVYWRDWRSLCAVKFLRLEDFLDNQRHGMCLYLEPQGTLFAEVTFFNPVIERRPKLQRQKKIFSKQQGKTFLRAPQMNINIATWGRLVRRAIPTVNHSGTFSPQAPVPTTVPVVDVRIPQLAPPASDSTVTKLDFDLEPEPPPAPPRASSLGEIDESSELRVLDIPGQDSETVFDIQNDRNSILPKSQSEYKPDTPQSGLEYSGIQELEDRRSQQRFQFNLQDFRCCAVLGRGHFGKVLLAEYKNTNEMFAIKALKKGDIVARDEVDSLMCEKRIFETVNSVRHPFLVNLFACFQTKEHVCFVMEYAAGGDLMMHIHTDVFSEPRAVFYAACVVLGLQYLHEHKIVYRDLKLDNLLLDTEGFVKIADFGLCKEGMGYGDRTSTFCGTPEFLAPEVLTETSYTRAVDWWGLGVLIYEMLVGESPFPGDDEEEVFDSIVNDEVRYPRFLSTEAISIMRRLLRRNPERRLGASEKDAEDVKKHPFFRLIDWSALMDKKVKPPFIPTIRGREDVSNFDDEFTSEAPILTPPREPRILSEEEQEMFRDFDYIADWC

[7] = biological target: ROCK2 (human) (UniProt O75116)
[8] = biological target: MST4 (human) (UniProt Q9P289)
[9] = biological target: ACVRL1 (human) (UniProt P37023)
Sequence of ACVRL1 (human) (P37023 whole entry, looked up): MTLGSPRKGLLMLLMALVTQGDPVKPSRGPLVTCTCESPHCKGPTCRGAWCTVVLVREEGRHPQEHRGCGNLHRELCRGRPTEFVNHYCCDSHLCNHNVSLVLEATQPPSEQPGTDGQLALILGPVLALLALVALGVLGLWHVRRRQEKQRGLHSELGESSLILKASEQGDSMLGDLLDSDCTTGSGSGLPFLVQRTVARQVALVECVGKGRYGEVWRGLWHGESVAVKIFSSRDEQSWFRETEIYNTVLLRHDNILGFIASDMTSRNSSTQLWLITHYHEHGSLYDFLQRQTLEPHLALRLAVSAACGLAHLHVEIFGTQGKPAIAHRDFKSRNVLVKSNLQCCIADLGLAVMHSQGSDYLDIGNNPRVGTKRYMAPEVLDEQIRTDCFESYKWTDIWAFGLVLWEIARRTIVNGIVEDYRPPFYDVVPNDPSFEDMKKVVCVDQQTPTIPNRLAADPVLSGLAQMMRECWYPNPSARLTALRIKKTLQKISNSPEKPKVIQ

[10] = biological target: MAP4K5 (human) (UniProt Q9Y4K4)
[11] = biological target: PRKG2 (human) (UniProt Q13237)
Sequence of PRKG2 (human) (Q13237 whole entry, looked up): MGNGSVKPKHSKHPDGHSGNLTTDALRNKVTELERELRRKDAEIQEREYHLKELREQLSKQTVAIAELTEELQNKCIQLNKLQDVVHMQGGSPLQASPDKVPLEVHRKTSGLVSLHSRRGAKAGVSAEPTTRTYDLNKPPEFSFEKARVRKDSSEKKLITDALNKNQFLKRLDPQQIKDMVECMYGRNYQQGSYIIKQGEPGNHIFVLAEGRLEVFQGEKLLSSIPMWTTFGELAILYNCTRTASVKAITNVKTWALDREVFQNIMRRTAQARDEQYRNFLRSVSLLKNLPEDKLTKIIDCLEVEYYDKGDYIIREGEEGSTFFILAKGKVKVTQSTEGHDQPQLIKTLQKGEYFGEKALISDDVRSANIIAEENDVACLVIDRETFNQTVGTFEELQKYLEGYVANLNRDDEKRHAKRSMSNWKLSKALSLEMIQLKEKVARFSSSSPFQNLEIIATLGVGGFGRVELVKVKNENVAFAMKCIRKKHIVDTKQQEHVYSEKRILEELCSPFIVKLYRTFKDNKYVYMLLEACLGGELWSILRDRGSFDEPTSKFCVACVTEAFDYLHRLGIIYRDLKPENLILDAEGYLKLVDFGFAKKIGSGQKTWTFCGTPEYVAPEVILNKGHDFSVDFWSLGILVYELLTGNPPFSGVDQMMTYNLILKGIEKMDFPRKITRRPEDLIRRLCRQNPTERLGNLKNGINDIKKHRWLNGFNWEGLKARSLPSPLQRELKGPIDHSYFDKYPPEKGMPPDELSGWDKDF

[12] = biological target: TTK (human) (UniProt P33981)
[13] = biological target: LYN (human) (UniProt P07948)
[14] = biological target: PDGFRA (human) (UniProt P16234)
[15] = biological target: DAPK2 (human) (UniProt Q9UIK4)
[16] = biological target: MAP3K7 TAB1 (human) (UniProt O43318+Q15750)
[17] = biological target: PRKCH (human) (UniProt P24723)
[18] = biological target: PAK3 (human) (UniProt O75914)
[19] = biological target: MAP3K11 (human) (UniProt Q16584)
[20] = biological target: STK3 (human) (UniProt Q13188)
[21] = biological target: EPHA7 (human) (UniProt Q15375)
[22] = biological target: CDC42BPA (human) (UniProt Q5VT25)
Sequence of CDC42BPA (human) (Q5VT25 whole entry, looked up): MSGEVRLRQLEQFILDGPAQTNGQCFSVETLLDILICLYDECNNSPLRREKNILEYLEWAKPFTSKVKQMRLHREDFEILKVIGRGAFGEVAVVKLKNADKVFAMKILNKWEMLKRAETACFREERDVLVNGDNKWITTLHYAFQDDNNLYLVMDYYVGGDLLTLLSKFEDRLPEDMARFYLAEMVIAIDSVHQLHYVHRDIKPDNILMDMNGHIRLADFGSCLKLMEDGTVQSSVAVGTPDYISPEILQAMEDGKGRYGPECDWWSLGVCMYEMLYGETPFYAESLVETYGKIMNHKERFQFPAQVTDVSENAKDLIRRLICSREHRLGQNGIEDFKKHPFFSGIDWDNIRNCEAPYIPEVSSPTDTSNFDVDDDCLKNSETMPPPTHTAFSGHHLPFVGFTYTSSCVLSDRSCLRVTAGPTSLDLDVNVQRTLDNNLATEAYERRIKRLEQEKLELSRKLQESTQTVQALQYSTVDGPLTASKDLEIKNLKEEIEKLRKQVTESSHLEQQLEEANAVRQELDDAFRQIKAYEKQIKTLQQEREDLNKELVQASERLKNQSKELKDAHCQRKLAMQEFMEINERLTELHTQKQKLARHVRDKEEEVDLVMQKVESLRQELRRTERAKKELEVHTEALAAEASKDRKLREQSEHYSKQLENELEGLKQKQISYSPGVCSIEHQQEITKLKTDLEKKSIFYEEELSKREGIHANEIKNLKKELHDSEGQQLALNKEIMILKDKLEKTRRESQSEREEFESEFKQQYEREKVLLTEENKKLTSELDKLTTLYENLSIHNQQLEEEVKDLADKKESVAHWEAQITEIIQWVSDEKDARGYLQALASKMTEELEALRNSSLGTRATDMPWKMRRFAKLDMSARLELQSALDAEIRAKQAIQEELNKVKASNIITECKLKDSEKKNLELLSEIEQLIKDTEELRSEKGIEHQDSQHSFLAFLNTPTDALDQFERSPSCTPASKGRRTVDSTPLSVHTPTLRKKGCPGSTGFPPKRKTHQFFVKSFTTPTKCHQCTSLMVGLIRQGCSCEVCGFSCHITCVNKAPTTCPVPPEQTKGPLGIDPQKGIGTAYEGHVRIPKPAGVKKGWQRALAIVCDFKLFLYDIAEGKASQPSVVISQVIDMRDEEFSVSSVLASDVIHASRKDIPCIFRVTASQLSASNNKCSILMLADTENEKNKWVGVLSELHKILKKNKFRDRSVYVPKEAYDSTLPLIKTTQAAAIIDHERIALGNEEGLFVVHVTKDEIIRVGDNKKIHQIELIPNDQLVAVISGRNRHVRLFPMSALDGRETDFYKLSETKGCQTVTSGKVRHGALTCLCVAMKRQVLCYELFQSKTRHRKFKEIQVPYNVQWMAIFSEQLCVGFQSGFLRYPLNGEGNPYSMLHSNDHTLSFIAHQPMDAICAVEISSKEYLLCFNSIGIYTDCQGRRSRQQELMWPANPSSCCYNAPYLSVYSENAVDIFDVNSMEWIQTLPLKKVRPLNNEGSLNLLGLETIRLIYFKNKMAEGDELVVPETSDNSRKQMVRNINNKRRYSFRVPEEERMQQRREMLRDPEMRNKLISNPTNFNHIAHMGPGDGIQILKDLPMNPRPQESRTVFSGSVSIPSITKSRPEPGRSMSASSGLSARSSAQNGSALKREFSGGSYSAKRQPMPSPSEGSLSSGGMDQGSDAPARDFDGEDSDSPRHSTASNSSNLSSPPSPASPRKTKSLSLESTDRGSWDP

[23] = biological target: MATK (human) (UniProt P42679)
[24] = biological target: DYRK3 (human) (UniProt O43781)
Sequence of DYRK3 (human) (O43781 whole entry, looked up): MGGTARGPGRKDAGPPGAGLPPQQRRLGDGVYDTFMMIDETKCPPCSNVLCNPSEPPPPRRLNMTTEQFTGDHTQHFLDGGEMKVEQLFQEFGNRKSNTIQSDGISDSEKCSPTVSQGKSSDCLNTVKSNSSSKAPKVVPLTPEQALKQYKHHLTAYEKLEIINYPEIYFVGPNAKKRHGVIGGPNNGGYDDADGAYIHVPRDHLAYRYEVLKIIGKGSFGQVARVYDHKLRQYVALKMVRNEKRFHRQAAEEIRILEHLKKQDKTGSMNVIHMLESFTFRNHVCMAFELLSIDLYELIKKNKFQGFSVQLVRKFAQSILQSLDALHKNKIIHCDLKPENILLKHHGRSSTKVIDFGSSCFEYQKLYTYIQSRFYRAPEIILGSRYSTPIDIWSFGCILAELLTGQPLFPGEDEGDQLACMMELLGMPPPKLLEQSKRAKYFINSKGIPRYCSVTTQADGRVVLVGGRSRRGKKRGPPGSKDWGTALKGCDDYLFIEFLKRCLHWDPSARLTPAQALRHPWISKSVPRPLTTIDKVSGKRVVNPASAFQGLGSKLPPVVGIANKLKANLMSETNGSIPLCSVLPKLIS

[25] = biological target: PRKCA (human) (UniProt P17252)
[26] = biological target: CSNK2A1 (human) (UniProt P68400)
Sequence of CSNK2A1 (human) (P68400 whole entry, looked up): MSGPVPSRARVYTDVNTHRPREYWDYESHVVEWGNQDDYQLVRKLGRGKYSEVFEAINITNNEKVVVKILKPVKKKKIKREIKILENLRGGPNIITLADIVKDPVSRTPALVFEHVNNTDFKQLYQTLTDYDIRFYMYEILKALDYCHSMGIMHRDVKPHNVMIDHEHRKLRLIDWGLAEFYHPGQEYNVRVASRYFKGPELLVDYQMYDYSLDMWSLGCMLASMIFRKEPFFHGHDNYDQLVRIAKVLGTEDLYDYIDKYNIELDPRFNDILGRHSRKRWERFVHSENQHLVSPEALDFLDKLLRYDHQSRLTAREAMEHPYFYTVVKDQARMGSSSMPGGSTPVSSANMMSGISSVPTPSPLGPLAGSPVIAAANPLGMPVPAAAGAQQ

[27] = biological target: HIPK2 (human) (UniProt Q9H2X6)
[28] = biological target: PRKCG (human) (UniProt P05129)
[29] = biological target: PBK (human) (UniProt Q96KB5)
[30] = biological target: PIM2 (human) (UniProt Q9P1W9)
[31] = biological target: FGR (human) (UniProt P09769)
[32] = biological target: CDK7 CCNH MNAT1 (human) (UniProt P50613+P51948+P51946)
[33] = biological target: FYN (human) (UniProt P06241)
[34] = biological target: DSTYK (human) (UniProt Q6XUX3)
[35] = biological target: CAMK1 (human) (UniProt Q14012)
[36] = biological target: PAK6 (human) (UniProt Q9NQU5)
[37] = biological target: VRK1 (human) (UniProt Q99986)
[38] = biological target: CAMK2D (human) (UniProt Q13557)
[39] = biological target: CDK9 CCNK (human) (UniProt O75909+P50750)
[40] = biological target: PIM3 (human) (UniProt Q86V86)
[41] = biological target: ABL1 (human) (UniProt P00519)

Structure (SMILES)	residual activity [1] [%]	residual activity [2] [%]	residual activity [3] [%]	residual activity [4] [%]	residual activity [5] [%]	residual activity [6] [%]	residual activity [7] [%]	residual activity [8] [%]	residual activity [9] [%]	residual activity [10] [%]	residual activity [11] [%]	residual activity [12] [%]	residual activity [13]	residual activity [14] [%]	residual activity [15] [%]	residual activity [16] [%]	residual activity [17] [%]	residual activity [18] [%]	residual activity [31] [%]	residual activity [38] [%]	also measured
FC(F)(F)c1ccc(/C=C/c2nc(COc3ccc(CCCCn4ccnn4)cc3)co2)cc1	98.8	85.4	99.4	107	99.5	107	99.7	98	103	96.5	89.9	111	104% and 95.8%	104	107	88.7	87.6	101	92.6	109	residual activity [19]: 99.1%; residual activity [20]: 95.5%; residual activity [21]: 95.2%; residual activity [22]: 103%; residual activity [23]: 95%; residual activity [24]: 109%; residual activity [25]: 111%; residual activity [26]: 97.5%; residual activity [27]: 90.2%; residual activity [28]: 95.2%; residual activity [29]: 99.9%; residual activity [30]: 116%; residual activity [32]: 107%; residual activity [33]: 97%; residual activity [34]: 88.8%; residual activity [35]: 105%; residual activity [36]: 100%; residual activity [37]: 99.8%; residual activity [39]: 105%; residual activity [40]: 107%
COc1cc2c(Nc3ccc(Br)cc3F)ncnc2cc1OCC1CCN(C)CC1	71.4	94.4	107	90.2	–	99.7	90.7	102	104	37.1	101	95.1	10.8% and 16.7%	28.6	93.3	93.9	117	103	30	95.8	residual activity [19]: 100%; residual activity [20]: 97.5%; residual activity [21]: 31.8%; residual activity [22]: 83.7%; residual activity [23]: 101%; residual activity [24]: 96%; residual activity [25]: 97.1%; residual activity [26]: 112%; residual activity [27]: 99.4%; residual activity [28]: 93.2%; residual activity [29]: 98.9%; residual activity [30]: 99.4%; residual activity [32]: 102%; residual activity [33]: 48.2%; residual activity [34]: 96%; residual activity [35]: 81.6%; residual activity [36]: 105%; residual activity [37]: 98.9%; residual activity [40]: 96.1%
COc1cc2c(cc1OC)-c1[nH]nc(Nc3cccc(F)c3)c1C2	27.9	72.1	102	89.9	97.6	92	95.2	97	102	89	92.5	84.1	60.2% and 77.5%	33.4	86.7	94	92.1	93.1	47.2	103	residual activity [19]: 93.9%; residual activity [20]: 93%; residual activity [21]: 98%; residual activity [22]: 119%; residual activity [23]: 92.1%; residual activity [24]: 84.4%; residual activity [25]: 99.2%; residual activity [26]: 96.6%; residual activity [27]: 103%; residual activity [28]: 102%; residual activity [29]: 86.8%; residual activity [30]: 119%; residual activity [32]: 101%; residual activity [33]: 73.4%; residual activity [34]: 93.3%; residual activity [35]: 98.4%; residual activity [36]: 84.8%; residual activity [37]: 89.9%; residual activity [39]: 91.9%; residual activity [40]: 95.3%
N#Cc1c(NC(=O)c2cccc3ccccc23)sc2c1CCCC2	84.2	83.3	105	95.2	100	103	98	102	107	93.8	111	85.5	104% and 87%	101	105	99.7	97.9	105	98.1	97.7	residual activity [19]: 103%; residual activity [20]: 111%; residual activity [22]: 103%; residual activity [23]: 92.7%; residual activity [41]: 103%; residual activity [24]: 128%; residual activity [25]: 99.5%; residual activity [26]: 101%; residual activity [28]: 95.4%; residual activity [29]: 116%; residual activity [30]: 104%; residual activity [32]: 101%; residual activity [33]: 102%; residual activity [34]: 100%; residual activity [35]: 108%; residual activity [36]: 101%; residual activity [37]: 87.2%; residual activity [39]: 90.5%; residual activity [40]: 95.3%
CN[C@@H]1C[C@H]2O[C@@](C)([C@@H]1OC)n1c3ccccc3c3c4c(c5c6ccccc6n2c5c31)C(=O)NC4	–	–	1.92	–	1.38	–	–	4.43	–	–	–	–	1.18% and 5.72%	–	–	–	–	–	0.266	3.05	residual activity [39]: 9.24%
